According to patent US20210386750A1, “METHODS AND MATERIALS FOR TREATING CANCER” (Mayo Foundation for Medical Education and Research, priority 2018, published 2021):
“Also recorded” adds a separate entry of the source.

Tests used:
PEA1 cells = assay: Clonogenic (colony formation) assay in PEA1 cells; details: PEA1, BRCA1 siRNAs, colony formation 8-10 days (FIG. 4B, 14, 22B)
Description: OVCAR-8 (A) and PEA1 (B) cells were transfected with control luciferase (Luc) or BRCA1 siRNAs. 48 hours later, the cells were trypsinized, plated in 6-well plates, and subjected to colony formation assays. The indicated concentrations of ceritinib was added 12 hours after plating.

OVCAR-8 cells = assay: Clonogenic (colony formation) assay in OVCAR-8 cells; details: for Sensitivity of BRCA1-depleted cells to the agent versus control luciferase siRNA cells: OVCAR-8, BRCA1 siRNAs, colony formation 8-10 days (FIG. 4A, 14, 22A); for Sensitization to the agent by NNMT overexpression: OVCAR-8 clones stably expressing Myc-DDK-NNMT versus empty vector, 8-10 days (FIG. 16, 24)
Description: A portion of the cells used in A and C were subjected to colony formation assays using olaparib, a PARP inhibitor (as a positive control for HR deficiency).
(A-C) OVCAR-8 and PEA1 cells were transfected with control luciferase (siLuc) or BRCA1 siRNAs. 48 hours later, the cells were trypsinized, immunoblotted for BRCA1 and HSP90 (bottom panels), and subjected to colony formation assays.
The cells were cultured for 8-10 days to allow colony formation.

[1] = system: HCT-116 colon cancer cells; assay: Colony formation assay in HCT-116 colon cancer clones (empty vector or Myc-DDK-NNMT); type: cell-based; details: HCT-116 Myc-NNMT clones #4, #8, #22 versus empty vector, 8-10 days, n=1 (FIG. 26)
Description: Clones of HCT-116 colon cancer cells stably transfected with empty vector (pcDNA3) or the Myc-DDK-NNMT expression plasmid (Myc-NNMT Clone #4, #8, #22) were plated as single cells, allowed to adhere for 12 hours, and then treated with ceritinib. […] Data are means±SEM from triplicate wells, n=1 experiment.
Clonogenic assays were performed as described elsewhere (see, e.g., Wagner et al., Mol. Pharmacol., 76:208-14 (2009)).

| SMILES | Sensitivity of BRCA1-depleted cells to the agent versus control luciferase siRNA cells (PEA1 cells) | Sensitivity of BRCA1-depleted cells to the agent versus control luciferase siRNA cells (OVCAR-8 cells) | Sensitization to the agent by NNMT overexpression (OVCAR-8 cells) | Sensitization to the agent by NNMT overexpression [1] | Sensitization to the agent by depletion of BRCA2 or RAD51 (OVCAR-8 cells; OVCAR-8, BRCA2 or RAD51 siRNAs (FIG. 12B, 12D, 15)) |
| --- | --- | --- | --- | --- | --- |
| O=C(Oc1cccc(F)c1OC(=O)c1cccc(O)c1)c1cccc(O)c1 [WZB117] | sensitized | sensitized |  |  |  |
| Cc1cc(Nc2ncc(Cl)c(Nc3ccccc3S(=O)(=O)C(C)C)n2)c(OC(C)C)cc1C1CCNCC1 [ceritinib] | sensitizes | sensitizes | sensitizes | sensitizes |  |
| O=C(c1cc(Cc2n[nH]c(=O)c3ccccc23)ccc1F)N1CCN(C(=O)C2CC2)CC1 [olaparib] |  |  |  |  | increased sensitivity; also recorded: did sensitize |
| CN(C)c1cc(NC(=O)CNC(C)(C)C)c(O)c2c1C[C@H]1C[C@H]3[C@H](N(C)C)C(O)=C(C(N)=O)C(=O)[C@@]3(O)C(O)=C1C2=O [tigecycline] | sensitized | sensitized | sensitizes |  |  |
